Assay results taken from patent US12209102B2, “Heterocyclic compounds and uses thereof” (Kumquat Biosciences Inc., priority 2022, dated 2025).

Assays:
K-Ras WT = molecular target: T1, K-Ras WT (Homo sapiens, UniProt P01116); assay: HTRF resonance energy transfer assay, K-Ras WT / SOS1 interaction; type: biochemical; conditions: HTRF assay of Example 5; read-out: IC50 against K-Ras WT
T1 construct: made in house; host or cells: E. coli BL21 (DE3)
Summary of the method: (§1)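 Buffer about 5 mM HEPES pH 7.4 with ~150 mM NaCl, ~1 mM DTT, 0.05% BSA, 0.0025% (v/v) Igepal. Protein constructs used at molarity matching the IC50 range studied (e.g. ~500 nM). FRET between tagged K-Ras and hSOS1 measured after short incubation.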

K-Ras G12D = molecular target: T2, K-Ras G12D (Homo sapiens, UniProt P01116, G12D); assay: HTRF resonance energy transfer assay, K-Ras G12D / SOS1 interaction; type: biochemical; conditions: HTRF assay of Example 5; read-out: IC50 against K-Ras G12D
T2 construct: made in house; host or cells: E. coli BL21 (DE3)
Summary of the method: as §1

GP2D cells = assay: Ras cellular assay, growth of cells with K-Ras G12D mutation (CellTiter-Glo); type: cell-based; conditions: cell growth, Example 9, G12D mutation, read-out: IC50 against GP2D cells
SW620 cells = assay: Ras cellular assay, growth of cells with K-Ras G12V mutation (CellTiter-Glo); type: cell-based; conditions: Homo sapiens, SW-620; cell growth, Example 9, G12V mutation; read-out: IC50 against SW620 cells
Summary of the method: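 IC50 values came from a four-parameter fit of CellTiter-Glo viability, read roughly 6 days after dosing with e.g. a 10-point threefold dilution series. G12V-mutant SW620 cells (e.g. 800 per well) had been plated the previous day in RPMI-1640/10% heat-inactivated FBS, on tissue culture-treated or ultra-low attachment plates.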

K-Ras G12S = molecular target: T3, K-Ras G12S (Homo sapiens, UniProt P01116, G12S); assay: HTRF resonance energy transfer assay, K-Ras G12S / SOS1 interaction; type: biochemical; conditions: HTRF assay of Example 5; read-out: IC50 against K-Ras G12S
T3 construct: made in house; host or cells: E. coli BL21 (DE3)
Summary of the method: as §1

K-Ras G12V = molecular target: T4, K-Ras G12V (Homo sapiens, UniProt P01116, G12V); assay: HTRF resonance energy transfer assay, K-Ras G12V / SOS1 interaction; type: biochemical; conditions: HTRF assay of Example 5; read-out: IC50 against K-Ras G12V
T4 construct: made in house; host or cells: E. coli BL21 (DE3)
Summary of the method: as §1

T4 sequence (P01116 1-188 isoform P01116-2 G12V): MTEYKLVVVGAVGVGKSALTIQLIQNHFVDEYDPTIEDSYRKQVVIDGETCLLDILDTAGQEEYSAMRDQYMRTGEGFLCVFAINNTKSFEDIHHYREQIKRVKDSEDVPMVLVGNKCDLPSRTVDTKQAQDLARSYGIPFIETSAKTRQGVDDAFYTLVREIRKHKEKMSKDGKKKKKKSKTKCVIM
T3 sequence (P01116 1-188 isoform P01116-2 G12S): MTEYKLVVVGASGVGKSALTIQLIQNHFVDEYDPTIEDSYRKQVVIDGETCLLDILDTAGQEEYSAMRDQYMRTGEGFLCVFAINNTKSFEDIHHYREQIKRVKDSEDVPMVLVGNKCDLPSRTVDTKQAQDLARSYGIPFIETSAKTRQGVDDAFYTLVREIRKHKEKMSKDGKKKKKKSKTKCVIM
T1 sequence (P01116 1-188 isoform P01116-2): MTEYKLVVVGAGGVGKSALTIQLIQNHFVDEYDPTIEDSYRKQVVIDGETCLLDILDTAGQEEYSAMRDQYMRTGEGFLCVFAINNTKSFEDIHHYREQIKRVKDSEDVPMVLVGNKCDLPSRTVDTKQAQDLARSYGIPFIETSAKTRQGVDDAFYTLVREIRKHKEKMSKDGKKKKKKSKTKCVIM
T2 sequence (P01116 1-188 isoform P01116-2 G12D): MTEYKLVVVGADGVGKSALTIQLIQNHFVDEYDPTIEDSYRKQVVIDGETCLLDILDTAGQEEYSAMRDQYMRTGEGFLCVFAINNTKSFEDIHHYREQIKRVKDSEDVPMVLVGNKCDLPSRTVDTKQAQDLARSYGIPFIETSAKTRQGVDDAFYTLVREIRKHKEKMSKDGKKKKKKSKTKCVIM

Row | IC50 (K-Ras WT) [nM] | IC50 (K-Ras G12D) [nM] | IC50 (SW620 cells) [nM] | IC50 (K-Ras G12S) [nM] | IC50 (K-Ras G12V) [nM] | SMILES | IC50 (GP2D cells) [nM]
1 | < 100 | < 100 | < 5000 | < 100 | < 100 | N#Cc1c(N)sc2c(F)ccc(-c3c(Cl)c4c5c(nc(OC[C@@]67CCCN6C[C@H](F)C7)nc5c3F)N(CC(F)F)CCO4)c12 [Compound 748, 2-amino-4-(8-chloro-4-(2,2-difluoroethyl)-10-fluoro-2-(((2R,7aS)-2-fluorotetrahydro-1H-pyrrolizin-7a(5H)-yl)methoxy)-5,6-dihydro-4H-[1,4]oxazepino[5,6,7-de]quinazolin-9-yl)-7-fluorobenzo[b]thiophene-3-carbonitrile] | < 500
2 | < 100 | < 100 | < 5000 | < 100 | < 100 | CC(O)C1COc2c(Cl)c(-c3ccc(F)c4sc(N)c(C#N)c34)c(F)c3nc(OC[C@@]45CCCN4C[C@H](F)C5)nc(c23)N1CCN(C)C (stereo partly drawn) [Compound 745, 2-amino-4-(8-chloro-4-(2-(dimethylamino)ethyl)-10-fluoro-2-(((2R,7aS)-2-fluorotetrahydro-1H-pyrrolizin-7a(5H)-yl)methoxy)-5-(1-hydroxyethyl)-5,6-dihydro-4H-[1,4]oxazepino[5,6,7-de]quinazolin-9-yl)-7-fluorobenzo[b]thiophene-3-carbonitrile] | < 500
3 | < 100 | < 100 | < 5000 | < 100 | < 100 | N#Cc1c(N)sc2c(F)ccc(-c3c(Cl)c4c5c(nc(OC[C@@]67CCCN6C[C@H](F)C7)nc5c3F)N(CCC(F)F)[C@@H](C3CC3)CO4)c12 [Compound 668, 2-amino-4-((S)-8-chloro-5-cyclopropyl-4-(3,3-difluoropropyl)-10-fluoro-2-(((2R,7aS)-2-fluorotetrahydro-1H-pyrrolizin-7a(5H)-yl)methoxy)-5,6-dihydro-4H-[1,4]oxazepino[5,6,7-de]quinazolin-9-yl)-7-fluorobenzo[b]thiophene-3-carbonitrile] | < 500
4 | < 100 | < 100 | < 5000 | < 100 | < 100 | CC(C)(O)C1COc2c(Cl)c(-c3ccc(F)c4sc(N)c(C#N)c34)c(F)c3nc(OC[C@@]45CCCN4C[C@H](F)C5)nc(c23)N1CCC(F)F (stereo partly drawn) [Compound 1050, 2-amino-4-(8-chloro-4-(3,3-difluoropropyl)-10-fluoro-2-(((2R,7aS)-2-fluorotetrahydro-1H-pyrrolizin-7a(5H)-yl)methoxy)-5-(2-hydroxypropan-2-yl)-5,6-dihydro-4H-[1,4]oxazepino[5,6,7-de]quinazolin-9-yl)-7-fluorobenzo[b]thiophene-3-carbonitrile] | < 500
5 | < 100 | < 100 | < 5000 | < 100 | < 100 | N#Cc1c(N)sc2c(F)ccc(-c3c(Cl)c4c5c(nc(OC[C@@]67CCCN6C[C@H](F)C7)nc5c3F)N(CCC(F)F)[C@@H](C(F)F)CO4)c12 [Compound 1035, 2-amino-4-((R)-8-chloro-5-(difluoromethyl)-4-(3,3-difluoropropyl)-10-fluoro-2-(((2R,7aS)-2-fluorotetrahydro-1H-pyrrolizin-7a(5H)-yl)methoxy)-5,6-dihydro-4H-[1,4]oxazepino[5,6,7-de]quinazolin-9-yl)-7-fluorobenzo[b]thiophene-3-carbonitrile] | < 500
6 | < 100 | < 100 | < 5000 | < 100 | < 100 | N#Cc1c(N)sc2c(F)ccc(-c3c(Cl)c4c5c(nc(OC[C@@]67CCCN6C[C@H](F)C7)nc5c3F)N(CC(F)F)[C@@H](C(O)C(F)(F)F)CO4)c12 (stereo partly drawn) [Compound 919, 2-amino-4-((5R)-8-chloro-4-(2,2-difluoroethyl)-10-fluoro-2-(((2R,7aS)-2-fluorotetrahydro-1H-pyrrolizin-7a(5H)-yl)methoxy)-5-(2,2,2-trifluoro-1-hydroxyethyl)-5,6-dihydro-4H-[1,4]oxazepino[5,6,7-de]quinazolin-9-yl)-7-fluorobenzo[b]thiophene-3-carbonitrile] | < 500
7 | < 100 | < 100 | < 5000 | < 100 | < 100 | C[C@H](O)[C@H]1[C@@H](C)Oc2c(Cl)c(-c3ccc(F)c4sc(N)c(C#N)c34)c(F)c3nc(OC[C@@]45CCCN4C[C@H](F)C5)nc(c23)N1CC(F)F [Compound 911, 2-amino-4-((5S,6R)-8-chloro-4-(2,2-difluoroethyl)-10-fluoro-2-(((2R,7aS)-2-fluorotetrahydro-1H-pyrrolizin-7a(5H)-yl)methoxy)-5-((S)-1-hydroxyethyl)-6-methyl-5,6-dihydro-4H-[1,4]oxazepino[5,6,7-de]quinazolin-9-yl)-7-fluorobenzo[b]thiophene-3-carbonitrile] | < 500

Second part, the molecule before the results:

Row | SMILES | IC50 (K-Ras WT) [nM] | IC50 (K-Ras G12D) [nM] | IC50 (SW620 cells) [nM] | IC50 (K-Ras G12S) [nM] | IC50 (K-Ras G12V) [nM] | IC50 (GP2D cells) [nM]
8 | C[C@@H]1C[C@@H](N2CCOc3c(Cl)c(-c4ccc(F)c5sc(N)c(C#N)c45)c(F)c4nc(OC[C@@]56CCCN5C[C@H](F)C6)nc2c34)CN1 [Compound 1016, 2-amino-4-(8-chloro-10-fluoro-2-(((2R,7aS)-2-fluorotetrahydro-1H-pyrrolizin-7a(5H)-yl)methoxy)-4-((3R,5R)-5-methylpyrrolidin-3-yl)-5,6-dihydro-4H-[1,4]oxazepino[5,6,7-de]quinazolin-9-yl)-7-fluorobenzo[b]thiophene-3-carbonitrile] | < 100 | < 100 | < 5000 | < 100 | < 100 | < 500
9 | N#Cc1c(N)sc2c(F)ccc(-c3c(Cl)c4c5c(nc(OC[C@@]67CCCN6C[C@H](F)C7)nc5c3F)N[C@@H](C3(O)CC3)CO4)c12 [Compound 1076, 2-amino-4-((R)-8-chloro-10-fluoro-2-(((2R,7aS)-2-fluorotetrahydro-1H-pyrrolizin-7a(5H)-yl)methoxy)-5-(1-hydroxycyclopropyl)-5,6-dihydro-4H-[1,4]oxazepino[5,6,7-de]quinazolin-9-yl)-7-fluorobenzo[b]thiophene-3-carbonitrile] | < 100 | < 100 | < 5000 | < 100 | < 100 | < 500
10 | N#Cc1c(N)sc2c(F)ccc(-c3c(Cl)c4c5c(nc(OC[C@@]67CCCN6C[C@H](F)C7)nc5c3F)N([C@H]3CNC[C@H]3F)CCO4)c12 [Compound 1070, 2-amino-4-(8-chloro-10-fluoro-4-((3S,4R)-4-fluoropyrrolidin-3-yl)-2-(((2R,7aS)-2-fluorotetrahydro-1H-pyrrolizin-7a(5H)-yl)methoxy)-5,6-dihydro-4H-[1,4]oxazepino[5,6,7-de]quinazolin-9-yl)-7-fluorobenzo[b]thiophene-3-carbonitrile] | < 100 | < 100 | < 5000 | < 100 | < 100 | < 500
11 | N#Cc1c(N)sc2c(F)ccc(-c3c(Cl)c4c5c(nc(OC[C@@]67CCCN6C[C@H](F)C7)nc5c3F)N[C@@H](C(F)F)CO4)c12 [Compound 618, 2-amino-4-((R)-8-chloro-5-(difluoromethyl)-10-fluoro-2-(((2R,7aS)-2-fluorotetrahydro-1H-pyrrolizin-7a(5H)-yl)methoxy)-5,6-dihydro-4H-[1,4]oxazepino[5,6,7-de]quinazolin-9-yl)-7-fluorobenzo[b]thiophene-3-carbonitrile] | < 100 | < 100 | < 5000 | < 100 | < 100 | < 500
12 | N#Cc1c(N)sc2c(F)ccc(-c3c(Cl)c4c5c(nc(OC[C@@]67CCCN6C[C@H](F)C7)nc5c3F)N(C3CCOC3)[C@@H](C3(F)CC3)CO4)c12 (single isomer, unassigned) [Compound 772] | < 100 | < 100 | < 5000 | < 100 | < 100 | < 500
13 | C=C[C@H]1COc2c(Cl)c(-c3ccc(F)c4sc(N)c(C#N)c34)c(F)c3nc(OC[C@@]45CCCN4C[C@H](F)C5)nc(c23)N1C1CCOC1 (single isomer, unassigned) [Compound 980] | < 100 | < 100 | < 5000 | < 100 | < 100 | < 500
14 | C[C@@H]1CCOc2c(Cl)c(-c3ccc(F)c4sc(N)c(C#N)c34)c(F)c3nc(OC[C@@]45CCCN4C[C@H](F)C5)nc(c23)N1 [Compound 1219, 2-amino-4-((5R)-9-chloro-11-fluoro-2-(((2R,7aS)-2-fluorotetrahydro-1H-pyrrolizin-7a(5H)-yl)methoxy)-5-methyl-4,5,6,7-tetrahydro-[1,5]oxazocino[4,3,2-de]quinazolin-10-yl)-7-fluorobenzo[b]thiophene-3-carbonitrile] | < 100 | < 100 | < 5000 | < 100 | < 100 | < 500
